Measured values published in patent publication US20140088052A1, “CHALCONE DERIVATIVES AS NRF2 ACTIVATORS” (THE JOHNS HOPKINS UNIVERSITY, priority 2011, published 2014).

How the values were obtained:
Beas-2B cells = assay: Cell viability / cytotoxicity (MTT assay) in Beas-2B cells; format: cell-based, human; details: 24 h, DMSO = 100
Description: Concurrent with the gene expression analysis, the cytotoxicity of the chalcone derivatives was determined using the MTT assay.
Mad. Chem. 2007, 15, 2952-2962. […] Four hours before the end of incubation, the medium was removed and 100 μL of MTT (5 mg/mL in serum free medium) was added to each well. The MTT was removed after 4 h, cells were washed with PBS, and 100 μL DMSO was added to each well to dissolve the water-insoluble MTT-formazan crystals. The absorbance was recorded at 570 nm in a plate reader (Molecular Devices, Sunnyvale, Calif.).

[1] = test system: mice subjected to total body irradiation (TBI); assay: Survival of mice after total body irradiation; format: in vivo, mice (C57BL/6); details: 5 more doses every 48 h; for survival: 30 days
Description: To determine whether 2-trifluoromethyl-2′-methoxychalone, a potent Nrf2 activator, improves survival after lethal irradiation, irradiated mice were treated with 2-trifluoromethyl-2′-methoxychalone (200 μmol/kg body weight) or vehicle (100% PEG) by gavage. […] (LD70/30; 70% death in 30 days).
To investigate the therapeutic efficacy of compound 2b to mitigate mortality and the hematopoietic syndrome, mice were subjected to total body irradiation (TBI). C57BL/6 (8 wks, males,) were fed chow pellets ad libitum and supplied non-acidic water. Mice were subjected to TBI (0.65 Gy/min) in an AECL Gamma cell 40 irradiator (Atomic Energy, Canada).
Mortality was monitored every day for 30 days.
Mortality was monitored every day for 30 days. […] The percent mortality of mice treated with the vehicle at 1 h or 6 h after radiation was 100% (data not shown).

hematopoietic stem cells = assay: Bone marrow mononuclear cells and hematopoietic stem cells in irradiated mice; format: in vivo; details: 6.9Gy, single dose 24 h after irradiation, compared to vehicle
[2] = test system: LPS-induced TNF-α secretion; assay: LPS-induced TNF-α secretion by mouse peritoneal macrophages; format: cell-based, mice; details: 5 μM or 10 μM for 16-20 h, LPS 100 ng/mL 4 h, compared to vehicle
Description: After 4 h, TNF-α secretion in cell-free media by macrophages was analyzed by ELISA.

COc1ccccc1C(=O)/C=C/c1ccccc1C(F)(F)F [Compound 2b, (E)-1-(2-methoxyphenyl)-3-(2-(trifluoromethyl)phenyl)prop-2-en-1-one]
% Cell Viability (Beas-2B cells): 100.9%
median survival ([1]; 7.3 Gy TBI, treatment started 24 hours after irradiation, 200 μmol/kg by gavage, vehicle approximately 15 days): 26 days
survival ([1]; TBI 6.9 Gy, oral 400 mg/Kg started 24 h after TBI): 90%
survival ([1]; TBI 7.1 Gy, oral 400 mg/Kg started 24 h after TBI): 60%
survival ([1]; TBI 7.3 Gy, oral treatment started 1 h after TBI): approximately 60%
survival ([1]; TBI 7.3 Gy, oral treatment started 6 h after TBI): ~50%
total BM-MNC per limb and total HSPC, HSC and MPP (hematopoietic stem cells; analysed 24 h after treatment): significantly higher
viable hematopoietic stem cells (colony forming cells assay) (hematopoietic stem cells): increased number of hematopoietic stem cells
LPS-induced TNF-α secretion by macrophages (ELISA) [2]: significant decrease in LPS-induced TNF-α secretion
